Source: patent US20140105891A1, “TREATMENT OF CANCER” (CERULEAN PHARMA INC., priority 2012, published 2014)

Key:
[1] = test system: H1299 human NSCLC xenograft; assay: H1299 NSCLC xenograft tumor growth delay; conditions: for median tumor volume (MTV) of survivors: D74 survivors, Gemcitabine 120 mg/kg; for tumor-free survival (TFS): CRLX101 10 mg/kg qwk×3, marketed drugs on optimal preclinical regimens
Protocol: H1299 cells were obtained from the American Type Culture Collection (ATCC), and the tumor line was maintained by serial engraftment in nude mice.
Body weight was measured daily on Days 1-5, then twice weekly until the completion of the study. Tumor volume was measured twice weekly and each animal was euthanized when the calculated tumor volume reached the 2000 mm^3 endpoint, or on day-88 post implantation, whichever came first.

[2] = test system: A2780 Ovarian Xenograft Tumors; assay: A2780 ovarian xenograft tumor growth / response rate; type: in vivo, mouse; conditions: A2780, Day 42; CRLX101 5 mg/kg IV q7d×3; Bevacizumab 5 mg/kg i.p. biweekly×3; combination at same doses
HIF-1α = HIF-1α levels in A2780 xenograft after CRLX101 and Bevacizumab (Western blot); type: in vivo, mouse; conditions: CRLX101 5 mg/kg i.v. q7d×2, Bevacizumab 5 mg/kg i.p. Day 1, 4, 8, tumors Day 11
Protocol: (§1) Tumor samples were collected on Day 11, 72 hours after the last treatment (Day 8 for both drugs) and analyzed for HIF-1α and HIF-2α levels using Western blot.

HIF-2α = HIF-2α levels in A2780 xenograft after CRLX101 and Bevacizumab (Western blot); type: in vivo, mouse; conditions: CRLX101 5 mg/kg i.v. q7d×2, Bevacizumab 5 mg/kg i.p. Day 1, 4, 8, tumors Day 11
Protocol: as §1

Question: Which results are given for CC(=O)O[C@@]12CO[C@@H]1C[C@H](O)[C@@]1(C)C(=O)[C@H](O)C3=C(C)[C@@H](OC(=O)[C@H](O)[C@@H](NC(=O)OC(C)(C)C)c4ccccc4)C[C@@](O)([C@@H](OC(=O)c4ccccc4)[C@H]21)C3(C)C [Docetaxel]?
Answer: survival ([1]; 74 days post first treatment, docetaxel 30 mg/kg qwk×3): 20%; median tumor volume (MTV) of survivors ([1]; Docetaxel 30 mg/kg): 302 mm3; group mean body weight loss ([1]; Docetaxel 30 mg/kg, on D21): 9.3%

Question: Nc1ccn([C@@H]2O[C@H](CO)[C@@H](O)C2(F)F)c(=O)n1 [Gemcitabine] was tested. Which “tumor-free survival (TFS)” value ([1]; 74 days post first treatment) did it give?
Answer: The value was 50%.

Question: What about the “median tumor volume (MTV) of survivors” value ([1]; Docetaxel 30 mg/kg) of the same compound?
Answer: The value was 0 mm3.

Question: CC[C@@]1(O)C(=O)OCc2c1cc1n(c2=O)Cc2cc3c(CN(C)C)c(O)ccc3nc2-1 [Topotecan] was tested. Which “tumor-free survival (TFS)” value ([1]; 74 days post first treatment) did it give?
Answer: The value was 10%.

Question: What does the source list for Bevacizumab: antibody against VEGF?
Answer: Partial Response (# of mice) [2]: 0 of 10; HIF-1α % of Control (HIF-1α): 157 % of Control; HIF-2α % of Control (HIF-2α): 146 % of Control
